One assay deals with T1, human androgen receptor (Homo sapiens, UniProt P10275).
T1 construct: expressed in transfected cells; host or cells: HEK293
T1 sequence (P10275 1-920): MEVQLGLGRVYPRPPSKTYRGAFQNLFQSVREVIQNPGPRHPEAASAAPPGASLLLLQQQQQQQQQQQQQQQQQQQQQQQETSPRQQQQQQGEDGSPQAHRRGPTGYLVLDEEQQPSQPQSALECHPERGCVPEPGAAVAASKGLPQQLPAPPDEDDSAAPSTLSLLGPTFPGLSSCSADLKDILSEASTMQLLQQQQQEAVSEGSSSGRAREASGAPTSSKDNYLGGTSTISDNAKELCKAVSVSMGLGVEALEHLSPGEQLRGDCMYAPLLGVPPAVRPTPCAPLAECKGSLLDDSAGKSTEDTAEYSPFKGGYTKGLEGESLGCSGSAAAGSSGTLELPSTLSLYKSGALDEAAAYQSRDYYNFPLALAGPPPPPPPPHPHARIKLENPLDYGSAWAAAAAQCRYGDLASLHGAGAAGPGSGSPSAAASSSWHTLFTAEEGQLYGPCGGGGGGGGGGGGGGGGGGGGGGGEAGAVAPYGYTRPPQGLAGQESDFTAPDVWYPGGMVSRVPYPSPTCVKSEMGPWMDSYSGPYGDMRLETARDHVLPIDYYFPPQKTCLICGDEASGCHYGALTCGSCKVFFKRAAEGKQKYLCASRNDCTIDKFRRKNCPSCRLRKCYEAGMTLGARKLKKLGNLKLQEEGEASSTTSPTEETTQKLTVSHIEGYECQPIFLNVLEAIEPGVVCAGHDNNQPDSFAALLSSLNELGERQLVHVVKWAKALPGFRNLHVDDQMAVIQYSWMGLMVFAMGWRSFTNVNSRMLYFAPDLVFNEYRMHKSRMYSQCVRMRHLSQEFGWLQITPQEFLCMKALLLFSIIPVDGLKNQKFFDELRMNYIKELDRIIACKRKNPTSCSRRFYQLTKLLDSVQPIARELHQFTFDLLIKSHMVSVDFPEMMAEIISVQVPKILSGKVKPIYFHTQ
As to the kind of experiment: Reporter assay of an androgen receptor responsive sequence (luciferase, transiently transfected HEK293 cells). Particulars: 24 hours incubation, relative to activity of 100 nM DHT, read-out: AR transcriptive activity (pEC50) (converted). The format is cell-based. The method, then: Reporter Assay of an Androgen Receptor Responsive Sequence
To examine the agonist activity of compounds for androgen, a reporter assay using an androgen receptor responsive sequence was conducted.
Using Lipofectamine 2000 (Invitrogen), a plasmid mixture (pGL4-ARE (200 ng/well), pcDNA3-hAR (20 ng/well), pRL-TK (Promega) (150 ng/well)) was transiently transfected into HEK293 cells. The contents of the plasmid (mixture) are as follows:
pGL4-ARE is a reporter plasmid containing firefly luciferase sequence under the control of androgen receptor responsive sequence; pcDNA3-hAR is a plasmid containing full-length sequence of human androgen receptor under the constant control of CMV promoter; pRL-TK is a plasmid containing Renilla Luciferase sequence under the control of herpes simplex virus thymidine kinase and used as an internal standard for evaluations of transfection efficiency and compound toxicity.
After the incubation of Lipofectamine 2000 and the plasmid mixture in Opti-MEM for 20 minutes, the mixture was mixed with a cell suspension prepared with Opti-MEM in the similar way, and the cell suspension was plated to a 96-well plate at 20000 cells/well. The transfection was conducted by incubating the plates under the condition of 5% CO2 at 37° C. for 3 hours. Three hours after the transfection, the culture medium was removed and a compound solution prepared by DMEM supplemented with 5% FBS and treated with charcoal was added, and the mixture was incubated under the condition of 5% CO2 at 37° C. for 24 hours. After the incubation with the compound, luciferase activities were measured with a luminometer using Dual-Glo™ Luciferase Assay System (Promega). The measurement of the luciferase activities was performed in accordance with the protocol recommended by Promega. The activity of the compound was determined by comparing to the activity of 100 nM of DHT, and quantified the logarithm value (pEC50) of reciprocal value of the effective concentration of the compound which is equal to 50% of the activity value by applying a 4 parameter goodness-of-fit calculation.

Assay [1] concerns the target T2, androgen receptor (AR-LBD) (Rattus norvegicus, UniProt P15207).
T2 construct: 5 μL of 2×AR-LBD/Fluoromone AL Red Complex contained in the kit; purchased Invitrogen
T2 sequence (P15207 651-882 limits assumed): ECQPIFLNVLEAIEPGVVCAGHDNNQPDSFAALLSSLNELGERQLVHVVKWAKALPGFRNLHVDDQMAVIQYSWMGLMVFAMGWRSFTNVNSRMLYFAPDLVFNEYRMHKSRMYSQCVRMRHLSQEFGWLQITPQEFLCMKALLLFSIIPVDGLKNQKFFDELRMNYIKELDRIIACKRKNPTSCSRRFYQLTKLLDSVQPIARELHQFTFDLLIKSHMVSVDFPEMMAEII
As to the kind of experiment: Evaluation of androgen receptor affinity (PolarScreen Androgen Receptor Competitor Assay Kit, Red; fluorescence polarization). Particulars: 22° C. for 5 hours, relative to binding rate of 1 μM DHT, read-out: AR affinity (pEC50) (converted). In short, it runs like this:
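FP competition: compound + AR-LBD/Fluoromone AL Red tracer complex, 22° C, 5 h. Reference 1 μM DHT binding rate; pEC50 by 4-parameter fit.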
In general terms: In fluorescence polarisation assays a small probe gives low polarisation when free and higher when bound to something large.

20 compounds from US10689354B2, “Aminoazole derivative” (Teijin Pharma Limited, priority 2015, dated 2020) can be followed below.

Molecules are shown by their SMILES.

Take `Cc1sc(N(Cc2ccc(Cl)cc2)c2ccc(C#N)cc2)nc1C(=O)NS(C)(=O)=O` [Compound 23, 2-[N-[(4-chlorophenyl)methyl]-4-cyano-anilino]-5-methyl-N-methylsulfonyl-thiazole-4-carboxamide]: the EC50 was 25.1 nM on human androgen receptor and 63.1 nM in assay [1].
The corresponding values for `Cc1sc(N(Cc2cccc(C(F)(F)F)c2)c2ccc(C#N)cc2)nc1C(=O)NS(C)(=O)=O` [Compound 24, 2-[4-cyano-N-[[3-(trifluoromethyl)phenyl]methyl]anilino]-5-methyl-N-methylsulfonyl-thiazole-4-carboxamide] are 200 nM and 20 nM.
Consider `Cc1sc(N(Cc2ccc3ccccc3c2)c2ccc(C#N)cc2)nc1C(=O)NS(C)(=O)=O` [Compound 25, 2-[4-cyano-N-(2-naphthylmethyl)anilino]-5-methyl-N-methylsulfonyl-thiazole-4-carboxamide], for which the values for the EC50 (at human androgen receptor; in assay [1]) were 50.1 nM and 25.1 nM, respectively.
For `Cc1sc(N(Cc2ccc3occc3c2)c2ccc(C#N)cc2)nc1C(=O)NS(C)(=O)=O` [Compound 26, 2-[N-(benzofuran-5-ylmethyl)-4-cyano-anilino]-5-methyl-N-methylsulfonyl-thiazole-4-carboxamide], in that order: 25.1 nM and 63.1 nM.
With `Cc1sc(N(Cc2ccccc2)c2ccc(Cl)cc2)nc1C(=O)NS(C)(=O)=O` [Compound 31, 2-(N-benzyl-4-chloro-anilino)-5-methyl-N-methylsulfonyl-thiazole-4-carboxamide], the values for the EC50 (on human androgen receptor; in assay [1]) were 2510 nM and 100 nM, respectively.
For `Cc1sc(N(Cc2ccccc2)c2ccc(OC(F)(F)F)cc2)nc1C(=O)NS(C)(=O)=O` [Compound 34, 2-[N-benzyl-4-(trifluoromethoxy)anilino]-5-methyl-N-methylsulfonyl-thiazole-4-carboxamide], in that order: 3160 nM and 63.1 nM.
The corresponding values for `Cc1sc(N(Cc2ccccc2)c2ccc(Cl)c(Cl)c2)nc1C(=O)NS(C)(=O)=O` [Compound 37, 2-(N-benzyl-3,4-dichloro-anilino)-5-methyl-N-methylsulfonyl-thiazole-4-carboxamide] are 1260 nM and 50.1 nM.
`Cc1sc(N(CC2CCC(F)(F)CC2)c2ccc(C#N)cc2)nc1C(=O)NS(C)(=O)=O` [Compound 39, 2-[4-cyano-N-[(4,4-difluorocyclohexyl)methyl]anilino]-5-methyl-N-methylsulfonyl-thiazole-4-carboxamide]: the EC50 on human androgen receptor is 1260 nM; in assay [1], 251 nM.
For `Cc1nc(CN(c2ccc(C#N)cc2)c2nc(C(=O)NS(C)(=O)=O)c(C)s2)cs1` [Compound 40, 2-[4-cyano-N-[(2-methylthiazol-4-yl)methyl]anilino]-5-methyl-N-methylsulfonyl-thiazole-4-carboxamide], in that order: 501 nM and 1000 nM.
As for `Cc1sc(N(Cc2ccc(OC(F)F)cc2)c2ccc(C#N)cc2)nc1C(=O)NS(C)(=O)=O` [Compound 41, 2-[4-cyano-N-[[4-(difluoromethoxy)phenyl]methyl]anilino]-5-methyl-N-methylsulfonyl-thiazole-4-carboxamide], the EC50 (on human androgen receptor; in assay [1]) was 31.6 nM each time.
Turning to `Cc1ccccc1CN(c1ccc(C#N)cc1)c1nc(C(=O)NS(C)(=O)=O)c(C)s1` [Compound 45, 2-[4-cyano-N-(o-tolylmethyl)anilino]-5-methyl-N-methylsulfonyl-thiazole-4-carboxamide], the EC50 is 501 nM at human androgen receptor and 158 nM in assay [1].
For `Cc1sc(N(Cc2ccc(C(F)(F)F)cc2)c2ccc(C#N)cc2)nc1C(=O)NS(C)(=O)=O` [Compound 46, 2-[4-cyano-N-[[4-(trifluoromethyl)phenyl]methyl]anilino]-5-methyl-N-methylsulfonyl-thiazole-4-carboxamide], in that order: 31.6 nM and 31.6 nM.
As to `Cc1sc(N(Cc2ccc3ncsc3c2)c2ccc(C#N)cc2)nc1C(=O)NS(C)(=O)=O` [Compound 50, 2-[N-(1,3-benzothiazol-6-ylmethyl)-4-cyano-anilino]-5-methyl-N-methylsulfonyl-thiazole-4-carboxamide], the EC50 at human androgen receptor is 50.1 nM; in assay [1], 79.4 nM.
For `Cc1sc(N(Cc2cc3ccccc3s2)c2ccc(C#N)cc2)nc1C(=O)NS(C)(=O)=O` [Compound 51, 2-[N-(benzothiophen-2-ylmethyl)-4-cyano-anilino]-5-methyl-N-methylsulfonyl-thiazole-4-carboxamide], the EC50 was 31.6 nM at human androgen receptor and 50.1 nM in assay [1].
Turning to `Cc1sc(N(CCc2ccccc2)c2ccc(C#N)cc2)nc1C(=O)NS(C)(=O)=O` [Compound 52, 2-[4-cyano-N-(2-phenylethyl)anilino]-5-methyl-N-methylsulfonyl-thiazole-4-carboxamide], the values for the EC50 (on human androgen receptor; in assay [1]) were 2510 nM and 398 nM, respectively.
The corresponding values for `Cc1sc(N(Cc2ccccc2)c2ccc3ncccc3c2)nc1C(=O)NS(C)(=O)=O` [Compound 54, 2-[benzyl(6-quinolyl)amino]-5-methyl-N-methylsulfonyl-thiazole-4-carboxamide] are 1580 nM and 398 nM.
Take `Cc1sc(N(Cc2ccccc2SC(F)(F)F)c2ccc(C#N)cc2)nc1C(=O)NS(C)(=O)=O` [Compound 56, 2-[4-cyano-N-[[2-(trifluoromethylsulfanyl)phenyl]methyl]anilino]-5-methyl-N-methylsulfonyl-thiazole-4-carboxamide]: the EC50 was 6310 nM on human androgen receptor and 63.1 nM in assay [1].
With `Cc1sc(N(Cc2cccc(SC(F)(F)F)c2)c2ccc(C#N)cc2)nc1C(=O)NS(C)(=O)=O` [Compound 57, 2-[4-cyano-N-[[3-(trifluoromethylsulfanyl)phenyl]methyl]anilino]-5-methyl-N-methylsulfonyl-thiazole-4-carboxamide], the EC50 was 316 nM on human androgen receptor and 31.6 nM in assay [1].
As for `Cc1sc(N(Cc2cccc(OCc3ccccc3)c2)c2ccc(C#N)cc2)nc1C(=O)NS(C)(=O)=O` [Compound 59, 2-[N-[(3-benzyloxyphenyl)methyl]-4-cyano-anilino]-5-methyl-N-methylsulfonyl-thiazole-4-carboxamide], the EC50 at human androgen receptor is over 10000 nM; in assay [1] it was 31.6 nM.
Regarding `Cc1sc(N(Cc2ccccc2)c2ccc(-n3cncn3)cc2)nc1C(=O)NS(C)(=O)=O` [Compound 61, 2-[N-benzyl-4-(1,2,4-triazol-1-yl)anilino]-5-methyl-N-methylsulfonyl-thiazole-4-carboxamide], the EC50 at human androgen receptor is 3160 nM; in assay [1], 501 nM.
